Values of other authors, collected in US7320970B2, “Low dose estrogen interrupted hormone replacement therapy” (Duramed Pharmaceutials, Inc., priority 1999, dated 2008).

What was measured:
[1] = molecular target: T1, human sex-hormone-binding globulin (SHBG) (Homo sapiens, UniProt P04278)
T1 sequence (P04278 30-402): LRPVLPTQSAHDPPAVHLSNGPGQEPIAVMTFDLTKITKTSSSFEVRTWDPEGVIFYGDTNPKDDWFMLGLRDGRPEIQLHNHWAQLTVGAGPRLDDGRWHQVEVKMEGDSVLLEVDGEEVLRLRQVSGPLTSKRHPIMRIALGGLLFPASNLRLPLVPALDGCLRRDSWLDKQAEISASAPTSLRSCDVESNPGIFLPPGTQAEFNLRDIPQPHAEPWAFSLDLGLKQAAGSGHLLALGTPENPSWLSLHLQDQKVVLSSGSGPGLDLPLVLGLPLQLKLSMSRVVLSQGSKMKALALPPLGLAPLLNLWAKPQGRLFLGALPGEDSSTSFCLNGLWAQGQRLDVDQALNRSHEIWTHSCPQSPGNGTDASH

C#C[C@]1(OC(C)=O)CC[C@H]2[C@@H]3CCC4=CC(=O)CC[C@@H]4[C@H]3CC[C@@]21C [norethindrone acetate]
effectiveness against hot flushes (hot flushes; 10 mg daily): effective

C#C[C@]1(OC(C)=O)CC[C@H]2[C@@H]3CCC4=C/C(=N/O)CC[C@@H]4[C@H]3CC[C@@]21CC [norgestimate, D-17β-acetoxy-B-ethyl-17α ethinyl-gon-4-en-3-one oxime]
affinity for SHBG [1]: lack of affinity for SHBG | binding to progestin receptors (progestin receptors): binds to progestin receptors

CC(=O)O[C@]1(C(C)=O)CC[C@H]2[C@@H]3C=C(C)C4=CC(=O)CC[C@]4(C)[C@H]3CC[C@@]21C [megestrol acetate]
decrease in the frequency of hot flushes (hot flushes; dose of 20 to 80 mg/day, versus 21 percent with placebo): 85%
